In one data set the target is recombinant p300 (Homo sapiens, UniProt Q09472). The experiment in a line: In vitro HAT assay (histone acetylation, 14C acetyl CoA, autoradiography). It is filed as biochemical. The following applies: 1 μg recombinant p300, 10 μg Histone, pre-incubation 30° C. 30 min, densitometry; read-out: IC50 of inhibition of histone acetylation by p300. How it is done:
1 μg of HAT proteins (p300, CBP, pCAF, GCN5) and 10 μg of Histone were pre-incubated with or without sodium salicylate at various doses in an appropriate buffer (50 mM Hepes, pH 8.0, 10% Glycerol, 1 mM dithiothreitol (DTT)) at 30° C. for 30 min. After the pre-incubation period, 0.05 μCi of ^14C labeled acetyl CoA was added; the mixture was incubated for 1 hour. Samples were subjected to sodium dodecyl sulfate-polyacrylamide electrophoresis (SDS-PAGE). After electrophoresis, the gels were dried. Acetylation signals were detected in the dried gels by autoradiography. Band densities were measured by Image™ software (http://rsbweb(dot)nih(dot)gov/ij/); and the relative histone acetylation was plotted.
1 μg of recombinant p300 and 10 μg of Histone were pre-incubated with or without diflunisal at various doses in an appropriated buffer (50 mM Hepes, pH 8.0, 10% Glycerol, 1 mM DTT) at 30° C. for 30 min. 0.05 μCi of ^14C-labeled acetylCoA was then added, and the mixture was incubated for 1 hour. Histones were separated by SDS-PAGE (FIG. 1, bottom panel). Acetylation of Histone H3 and H4 were detected by autoradiography (FIG. 1, middle panel). […] Three different experimental systems were used to test the effect of diflunisal on HIV transcription and replication.

Data set [1] has as its system p300- and Tat-mediated transactivation of HIV transcription. The experiment in a line: HIV-1 LTR luciferase reporter assay in Hela cells co-transfected with Tat and p300. It is filed as cell-based. The protocol:
An HIV-1 LTR promoter plasmid linked to a luciferase reporter plasmid, with or without the expression vector for HIV-1 Tat and p300, was transfected into cells. Cells were treated with sodium salicylate at same time of transfection. 36 hours later, the cells were lysed with passive lysis buffer (Promega), and luciferase activity was measured using a luminometer.
The effect of diflunisal on HIV transcription was tested. A plasmid containing HIV-1 driving the luciferase reporter was co-transfected into Hela cells with or without expression vectors encoding Tat and/or p300. Co-transfection of the HIV LTR with either Tat or p300 enhanced LTR activity 4 fold (FIG. 2) and 12 fold (FIG. 2) respectively. Co-expression of both Tat and p300 synergistically activated the HIV promoter 48 fold (FIG. 2). […] The IC50 for this inhibition was 80 μM.
(In general: A reporter such as luciferase makes a cellular process visible.)

For data set [2], the system named is VSV-G envelope pseudotyped NL4-3 luciferase reporter viruses. Kind of data set: microbe, parasite or virus in culture. Format: cell-based, HIV.
In data set [3] the test system is replication-competent NL4-3/GFP virus. Kind of data set: HIV replication assay (GFP positive cells by flow cytometry). Format: cell-based. The following applies: activated CD4 T-cells, MOI of 0.3, 50 μM, or 100 μM diflunisal, collected every 2 to 3 days.
The conditions of data set [4]: cited from earlier work.
Another data set has as its system Activated CD4 T-cells. Kind of data set: Cell toxicity in the HIV replication assay (FIG. 4A). The following applies: 50 μM, or 100 μM diflunisal.

Sequence of recombinant p300 (Q09472 whole entry, species assumed): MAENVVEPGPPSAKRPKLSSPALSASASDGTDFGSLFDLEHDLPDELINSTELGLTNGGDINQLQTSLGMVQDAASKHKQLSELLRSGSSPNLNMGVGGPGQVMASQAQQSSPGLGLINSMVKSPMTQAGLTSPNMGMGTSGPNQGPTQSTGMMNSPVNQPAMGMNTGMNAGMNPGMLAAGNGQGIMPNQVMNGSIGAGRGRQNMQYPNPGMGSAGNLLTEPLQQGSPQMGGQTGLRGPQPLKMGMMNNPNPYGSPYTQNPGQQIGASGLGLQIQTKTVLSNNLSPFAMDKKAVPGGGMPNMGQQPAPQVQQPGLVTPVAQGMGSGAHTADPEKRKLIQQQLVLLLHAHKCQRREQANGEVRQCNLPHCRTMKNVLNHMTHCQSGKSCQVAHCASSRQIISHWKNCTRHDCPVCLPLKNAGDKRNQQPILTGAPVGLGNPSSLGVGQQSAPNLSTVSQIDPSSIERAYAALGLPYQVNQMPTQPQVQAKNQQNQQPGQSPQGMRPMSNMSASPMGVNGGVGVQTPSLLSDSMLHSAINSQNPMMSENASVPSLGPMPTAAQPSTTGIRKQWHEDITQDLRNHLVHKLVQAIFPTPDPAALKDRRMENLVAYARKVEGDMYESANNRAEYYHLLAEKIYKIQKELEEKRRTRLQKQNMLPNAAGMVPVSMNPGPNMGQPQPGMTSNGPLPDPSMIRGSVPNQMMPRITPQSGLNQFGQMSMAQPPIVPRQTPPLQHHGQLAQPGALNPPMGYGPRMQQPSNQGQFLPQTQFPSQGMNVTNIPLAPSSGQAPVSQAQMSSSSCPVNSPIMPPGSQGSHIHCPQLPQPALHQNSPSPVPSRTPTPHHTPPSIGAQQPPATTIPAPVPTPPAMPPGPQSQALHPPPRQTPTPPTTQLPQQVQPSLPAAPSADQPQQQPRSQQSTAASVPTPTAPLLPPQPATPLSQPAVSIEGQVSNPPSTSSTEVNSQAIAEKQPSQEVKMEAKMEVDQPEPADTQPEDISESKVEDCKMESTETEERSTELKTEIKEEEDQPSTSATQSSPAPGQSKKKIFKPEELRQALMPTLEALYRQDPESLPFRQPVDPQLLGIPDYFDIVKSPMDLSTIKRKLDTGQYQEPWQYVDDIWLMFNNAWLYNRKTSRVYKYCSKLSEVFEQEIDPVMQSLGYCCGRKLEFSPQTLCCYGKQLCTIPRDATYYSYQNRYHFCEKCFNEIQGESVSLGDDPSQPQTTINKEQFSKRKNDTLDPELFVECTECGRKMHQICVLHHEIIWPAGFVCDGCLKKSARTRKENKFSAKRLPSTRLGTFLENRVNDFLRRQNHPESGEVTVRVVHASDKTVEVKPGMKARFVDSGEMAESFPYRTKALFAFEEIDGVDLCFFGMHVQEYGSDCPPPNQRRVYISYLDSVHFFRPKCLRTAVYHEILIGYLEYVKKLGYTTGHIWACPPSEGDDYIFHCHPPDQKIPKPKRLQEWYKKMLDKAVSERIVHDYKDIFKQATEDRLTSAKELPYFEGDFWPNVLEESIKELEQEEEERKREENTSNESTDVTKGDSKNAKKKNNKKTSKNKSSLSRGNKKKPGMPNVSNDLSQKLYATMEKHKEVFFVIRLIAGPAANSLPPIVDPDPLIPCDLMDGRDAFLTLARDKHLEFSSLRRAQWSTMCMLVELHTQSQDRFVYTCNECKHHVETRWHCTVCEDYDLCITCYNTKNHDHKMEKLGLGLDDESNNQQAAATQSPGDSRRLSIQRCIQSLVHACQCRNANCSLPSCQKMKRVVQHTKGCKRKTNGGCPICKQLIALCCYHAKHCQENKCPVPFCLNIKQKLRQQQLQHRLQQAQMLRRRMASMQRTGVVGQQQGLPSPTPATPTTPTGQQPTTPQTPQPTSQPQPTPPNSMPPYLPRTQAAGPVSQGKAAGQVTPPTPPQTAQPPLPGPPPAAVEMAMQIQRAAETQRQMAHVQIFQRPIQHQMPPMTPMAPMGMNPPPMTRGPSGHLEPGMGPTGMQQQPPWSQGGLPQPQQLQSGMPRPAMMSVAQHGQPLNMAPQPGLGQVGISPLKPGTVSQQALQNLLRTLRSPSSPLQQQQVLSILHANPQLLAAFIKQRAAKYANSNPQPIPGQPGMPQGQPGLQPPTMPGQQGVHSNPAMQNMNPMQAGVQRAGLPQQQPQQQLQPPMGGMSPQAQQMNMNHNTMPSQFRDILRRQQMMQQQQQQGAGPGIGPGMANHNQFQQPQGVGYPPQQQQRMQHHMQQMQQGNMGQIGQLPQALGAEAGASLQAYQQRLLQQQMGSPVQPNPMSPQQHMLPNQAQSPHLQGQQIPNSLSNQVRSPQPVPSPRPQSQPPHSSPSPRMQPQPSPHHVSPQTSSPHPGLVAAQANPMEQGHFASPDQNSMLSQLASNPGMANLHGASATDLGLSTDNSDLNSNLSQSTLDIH

As usually defined, the IC50 is the concentration that gives 50% inhibition. As to `O=C(O)c1cc(-c2ccc(F)cc2F)ccc1O` [Diflunisal, 2′,4′-difluoro-4-hydroxy-3-biphenylcarboxylic acid], the IC50 at recombinant p300 was found to be 1240 µM; in data set [1] (Human immunodeficiency virus 1, HeLa, read-out: IC50 for inhibition of p300- and Tat-mediated transactivation of HIV transcription), 80 µM; in data set [2] (Human immunodeficiency virus 1, NL43, T-cell, 24 h, read-out: IC50 for inhibition of HIV infection), 148 µM. Besides, the “Block of p300- and Tat-mediated transactivation of HIV transcription” value in data set [1] (at 0.3 mM, Hela cells) is “completely blocked”. Moreover, the “Inhibition of HIV infection (FIG. 3)” value in data set [2] is reported as “inhibited HIV infection in a dose dependent manner”. Besides, the “Percentage of infected cells (GFP positive cells), FIG. 4B” value in data set [3] was “suppressed and delayed peak of infection in a dose dependent manner”. In addition, the Plasma trough concentrations in data set [4] (clinical dosage 0.5-1.0 gram per day) is 100 to 300 µM. Also, in data set [4] (in vivo), the Bioavailability was 80-90%. In addition, the Half-life in data set [4] (in vivo) was 8 to 12 h. For the same compound, the “Cell toxicity (FIG. 4A)” value in the data set with Activated CD4 T-cells is “did not show cell toxicity”.

Source of the values: patent US20140303074A1, “Compositions and Methods For Inhibiting Immunodeficiency Virus Transcription” (The J. David Gladstone Institutes, priority 2011, published 2014).
